Assay results published in patent US10053485B2, “Cytotoxic agents that preferentially target leukemia inhibitory factor (LIF) for the treatment of malignancies and as new contraceptive agents” (Evestra, Inc., priority 2015, dated 2018).

Legend:
[1] = system: NCI-H23; assay: NCI-60 screen, Non-Small Cell Lung Cancer panel; assay type: cell-based; conditions: Homo sapiens, NCI-H23, 48 h
[2] = system: SK-MEL-28; assay: NCI-60 screen, Melanoma panel; assay type: cell-based; conditions: Homo sapiens, SK-MEL-28, 48 h
[3] = system: MCF-7 (ER+ Breast Cancer); assay: Short term (72 h) cytotoxicity assay; assay type: cell-based; conditions: Homo sapiens, MCF7; MCF-7, 72 h cytotoxicity
[4] = system: Patient derived tumor (melanoma): p53, LIF, MDM2, pSTAT3, Ki67; assay: Immunohistochemistry analysis of patient derived tumor; assay type: cell-based, human; conditions: 10 nM and 1 uM for 5 days, FIG. 10
Protocol: Patient derived tumor (melanoma) was treated with the compounds at 10 nM and 1 uM for 5 days in RPMI medium and harvested on day 6 using established protocol and immunohistochemistry was performed for different antibodies including p53, LIF, MDM2, pSTAT3, Ki67.

[5] = system: MDA-MB-231 ATCC; assay: NCI-60 screen, Breast Cancer panel; assay type: cell-based; conditions: Homo sapiens, MDA-MB-231, 48 h
[6] = system: SNB-19; assay: NCI-60 screen, CNS Cancer panel; assay type: cell-based; conditions: Homo sapiens, SNB-19, 48 h
[7] = system: HS 578T; assay: NCI-60 screen, Breast Cancer panel; assay type: cell-based; conditions: Homo sapiens, 48 h
[8] = system: RXF 393; assay: NCI-60 screen, Renal Cancer panel; assay type: cell-based; conditions: Homo sapiens, RXF 393, 48 h
[9] = system: BT-549; assay: NCI-60 screen, Breast Cancer panel; assay type: cell-based; conditions: Homo sapiens, BT-549, 48 h
[10] = system: COLO 205; assay: NCI-60 screen, Colon Cancer panel; assay type: cell-based; conditions: Homo sapiens, COLO 205, 48 h
[11] = system: LIF-overexpressing MCF-7 (MCF-7 LIF) human breast cancer cells; assay: LIF specificity assay, LIF-overexpressing cells; assay type: cell-based
[12] = system: T47D (ER+ PR+ Breast Cancer); assay: Short term (72 h) cytotoxicity assay; assay type: cell-based; conditions: Homo sapiens
[13] = system: NCI-H226; assay: NCI-60 screen, Non-Small Cell Lung Cancer panel; assay type: cell-based; conditions: Homo sapiens, NCI-H226, 48 h, read-out: GI50 (log10GI50) (converted)
[14] = system: U251; assay: NCI-60 screen, CNS Cancer panel; assay type: cell-based; conditions: Homo sapiens, U-251, 48 h
[15] = system: M14; assay: NCI-60 screen, Melanoma panel; assay type: cell-based; conditions: Homo sapiens, M14, 48 h
[16] = system: SK-MEL-2; assay: NCI-60 screen, Melanoma panel; assay type: cell-based; conditions: Homo sapiens, SK-MEL-2, 48 h
[17] = read-out: GI50 (log10GI50) (converted)
[18] = read-out: LC50 (log10LC50) (converted)

Q: With C#CC(F)(F)[C@]1(O)CCC2C3CCC4=CC(=O)CCC4=C3C(c3ccc(C4CC4)cc3)C[C@@]21C (stereo partly drawn) [EC330, 17α-(1,1-difluoro-2-propyn-1-yl)-17β-hydroxy-11β-[4-p-(cyclopropyl)phenyl]estra-4,9-dien-3-one] as the compound, how does the GI50 [1, 17] read?
A: < 0.01 µM

Q: And the CC50 [1, 18]?
A: > 100 µM

Q: What about the GI50 [2, 17] of the same compound?
A: 1.78 µM

Q: And the CC50 [2, 18]?
A: 7.76 µM

Q: And the IC50 [3]?
A: 0.1 µM

Q: What about the “apoptosis, p53, MDM2, LIF mediated STAT3 phosphorylation (immunohistochemistry)” value [4] of the same compound?
A: induce apoptosis and restore p53 by inhibiting MDM2 and LIF mediated STAT3 phosphorylation

Q: What about the GI50 [5, 17] of the same compound?
A: 0.55 µM

Q: What about the CC50 [5, 18] of the same compound?
A: > 100 µM

Q: And the GI50 [6, 17]?
A: 3.8 µM

Q: What about the CC50 [6, 18] of the same compound?
A: > 100 µM

Q: And the GI50 [7, 17]?
A: 2.29 µM

Q: And the CC50 [7, 18]?
A: > 100 µM

Q: And the GI50 [8, 17]?
A: 1.07 µM

Q: And the CC50 [8, 18]?
A: > 100 µM

Q: What about the GI50 [9, 17] of the same compound?
A: 2.09 µM

Q: What about the CC50 [9, 18] of the same compound?
A: > 100 µM

Q: What about the GI50 [10, 17] of the same compound?
A: 0.794 µM

Q: And the CC50 [10, 18]?
A: 8.91 µM

Q: And the IC50 ([11]; Homo sapiens, MCF7, read-out: MCF-7 LIF IC50)?
A: 0.08 µM

Q: What about the “vulnerability of LIF overexpressing cells to cell death” value ([11]; LIF-overexpressing vs. unmodified MCF-7, in words) of the same compound?
A: more vulnerable to cell death

Q: And the IC50 [12]?
A: 0.08 µM

Q: What about the GI50 [13] of the same compound?
A: 2.63 µM

Q: And the GI50 [14, 17]?
A: 0.151 µM

Q: What about the CC50 [14, 18] of the same compound?
A: 5.37 µM

Q: And the GI50 [15, 17]?
A: 2.75 µM

Q: What about the CC50 [15, 18] of the same compound?
A: > 100 µM

Q: And the GI50 [16, 17]?
A: 2.14 µM

Q: And the CC50 [16, 18]?
A: 30.2 µM
